One data set has as its system Puccinia recondita. Description: Example M: in vivo preventive test on Puccinia recondita (brown rust on wheat). The settings on record: 500 ppm of active ingredient, grading 12 days after contamination. Here is the method:
In Vivo Preventive Test on Puccinia recondita (Brown Rust on Wheat) […] Wheat plants (“Scipion” variety), sown in starter cups on a 50/50 peat soil pozzolana substrate and grown at 22° C., are treated at the 1 leaf stage (10 cm height) by spraying with the active ingredient prepared as described above. Plants, used as controls, are treated with the mixture of acetone/tween/DMSO/water not containing the active material. After 24 hours, the plants are contaminated by spraying the leaves with an aqueous suspension of Puccinia recondite spores (100 000 spores per mL). The spores are collected from an infected plant and are suspended in water containing 2.5 mL/L of Tween 80 at 10%. […] Grading (% of efficacy) is carried out 12 days after the contamination, in comparison with the control plants.

A further data set deals with Alternaria solani. Description: Example C: in vivo preventive test on Alternaria solani (tomato). To be noted: 500 ppm of active ingredient, evaluated 7 days after inoculation. The method, then: (§1) In Vivo Preventive Test on Alternaria solani (Tomato) Solvent: 49 parts by weight of N,N-dimethylformamide Emulsifier: 1 part by weight of alkylarylpolyglycolether To produce a suitable preparation of active compound, 1 part by weight of active compound is mixed with the stated amounts of solvent and emulsifier, and the concentrate is diluted with water to the desired concentration. To test for preventive activity, young plants are sprayed with the preparation of active compound at the stated rate of application. One day after this treatment, the plants are inoculated with an aqueous spore suspension of Alternaria solani. The plants remain for one day in an incubation cabinet at approximately 22° C. and a relative atmospheric humidity of 100%. Then the plants are placed in an incubation cabinet at approximately 20° C. and a relative atmospheric humidity of 96%.

For a further data set, the system named is Uromyces appendiculatus. Description: Example Q: in vivo preventive test on Uromyces appendiculatus (bean rust). The settings on record: Uromyces appendiculatus on bean plants, 500 ppm of active ingredient, grading 11 days after contamination. The method, then:
In Vivo Preventive Test on Uromyces appendiculatus (Bean Rust) […] Bean plants (“Saxa” variety), sown in starter cups on a 50/50 peat soil pozzolana substrate and grown at 24° C., are treated at the 2 leaf stage (9 cm height) by spraying with the active ingredient prepared as described above. Plants, used as controls, are treated with the mixture of acetone/tween/DMSO/water not containing the active material. After 24 hours, the plants are contaminated by spraying the leaves with an aqueous suspension of Uromyces appendiculatus spores (150 000 spores per mL). The spores are collected from infected plants and are suspended in water containing 2.5 mL/L of Tween 80 at 10%. […] Grading (% of efficacy) is carried out 11 days after the contamination, in comparison with the control plants.

Data set [1] concerns Pyrenophora teres. Description: Example E: in vivo preventive test on Pyrenophora teres (barley), DMF/emulsifier preparation. The settings on record: 500 ppm of active ingredient, evaluated 7-9 days after inoculation. The method, then:
as §1, with “Pyrenophora teres (Barley)” for “Alternaria solani (Tomato)”, “alkylaryl polyglycol ether” for “alkylarylpolyglycolether”, “Pyrenophora teres.” for “Alternaria solani.”, “48 hours” for “one day”, “at” for “at approximately”, “100%.” for “100%. Then the plants are placed in an incubation cabinet at approximately 20° C. and a relative atmospheric humidity of 96%.”

Another data set has as its system Sphaerotheca fuliginea. Description: Example B: in vivo preventive test on Sphaerotheca fuliginea (powdery mildew on cucurbits), gherkin plants. The settings on record: 500 ppm of active ingredient, grading 12 days after contamination. The method, then:
In Vivo Preventive Test on Sphaerotheca fuliginea (Powdery Mildew on Cucurbits) […] Gherkin plants (“Vert petit de Paris” variety), sown in starter cups on a 50/50 peat soil-pozzolana substrate and grown at 24° C. are treated at the Z11 cotyledon stage by spraying with the active ingredient prepared as described above. Plants, used as controls, are treated with the mixture of acetone/tween/DMSO/water not containing the active material. After 24 hours, the plants are contaminated by spraying the cotyledons with an aqueous suspension of Sphaerotheca fuliginea spores (100 000 spores per mL). The spores are collected from infected plants.

The subject of data set [2] is Pyrenophora teres. Description: Example F: in vivo preventive test on Pyrenophora teres (barley), acetone/tween/DMSO preparation. The settings on record: 500 ppm of active ingredient, barley, grading 14 days after contamination. Here is the method:
In Vivo Preventive Test on Pyrenophora teres (Barley) […] Barley plants (“Plaisant” variety), sown in starter cups on a 50/50 peat soil pozzolana substrate and grown at 22° C., are treated at the 1 leaf stage (10 cm height) by spraying with the active ingredient prepared as described above. Plants, used as controls, are treated with the mixture of acetone/tween/DMSO/water not containing the active material. After 24 hours, the plants are contaminated by spraying the leaves with an aqueous suspension of Pyrenophora teres spores (12 000 spores per mL). The spores are collected from a 12-day-old culture. […] Grading (% of efficacy) is carried out 14 days after the contamination, in comparison with the control plants.

Another data set relates to Septoria tritici. Description: Example I: in vivo preventive test on Septoria tritici (wheat), acetone/tween/DMSO preparation. The settings on record: 500 ppm of active ingredient, grading 24 days after contamination. The method, then:
In Vivo Preventive Test on Septoria tritici (Wheat) […] Wheat plants (“Scipion” variety), sown in starter cups on a 50/50 peat soil pozzolana substrate and grown at 22° C., are treated at the 1 leaf stage (10 cm height) by spraying with the active ingredient prepared as described above. Plants, used as controls, are treated with the mixture of acetone/tween/DMSO/water not containing the active material. After 24 hours, the plants are contaminated by spraying the leaves with an aqueous suspension of cryopreserved Septoria tritici spores (500 000 spores per mL). The contaminated wheat plants are incubated for 72 hours at 18° C. and at 100% relative humidity, and then for 21 days at 90% relative humidity. Grading (% of efficacy) is carried out 24 days after the contamination, in comparison with the control plants.

The nature of data set [3]: log P by HPLC on reversed-phase column (C 18), EEC Directive 79831 Annex V.A8. The data set is classed as physicochemical. Here is the method: In table 1, the log P values were determined in accordance with EEC Directive 79831 Annex V.A8 by HPLC (High Performance Liquid Chromatography) on a reversed-phase column (C 18), using the method described below: Temperature: 40° C.; Mobile phases: 0.1% aqueous formic acid and acetonitrile; linear gradient from 10% acetonitrile to 90% acetonitrile. Calibration was carried out using unbranched alkan-2-ones (comprising 3 to 16 carbon atoms) with known log P values (determination of the log P values by the retention times using linear interpolation between two successive alkanones). lambda-max-values were determined using UV-spectra from 200 nm to 400 nm and the peak values of the chromatographic signals.

Another data set concerns Botrytis cinerea. Description: Example P: in vivo preventive test on Botrytis cinerea (grey mould), gherkin plants. To be noted: 500 ppm of active ingredient, grading 4 to 5 days after contamination. Here is the method:
In Vivo Preventive Test on Botrytis cinerea (Grey Mould) […] Gherkin plants (“Vert petit de Paris” variety), sown in starter cups on a 50/50 peat soil pozzolana substrate and grown at 24° C. are treated at the Z11 cotyledon stage by spraying with the active ingredient prepared as described above. Plants, used as controls, are treated with the mixture of acetone/tween/DMSO/water not containing the active material. After 24 hours, the plants are contaminated by spraying the cotyledons with an aqueous suspension of cryopreserved Botrytis cinerea spores (50 000 spores per mL). The spores are suspended in a nutrient solution composed of 10 g/L of PDB, 50 g/L of D-Fructose, 2 g/L of NH4NO3 and 1 g/L of KH2PO4. The contaminated gherkin plants are incubated at 17° C. and at 90% relative humidity. Grading (% of efficacy) is carried out 4 to 5 days after the contamination, in comparison with the control plants.

Where [4] appears, read: HPLC reversed-phase C 18, 40° C., 0.1% aqueous formic acid and acetonitrile gradient, several values = mixture of two or more isomers.

Like-named read-outs stand apart in the source and are kept apart here.

For `Cn1nc(C(F)F)c(C(=O)N(C2CC2)C2CCC3CCCC3C2)c1Cl` (mixture of isomers) [Example 21], the Efficacy is recorded as 94% with Puccinia recondita, 90% in the data set with Alternaria solani, 98% in the data set with Uromyces appendiculatus and 100% in the data set on Pyrenophora teres [1].

With `Cn1cc(C(=O)N(C2CC2)C2CCC3CCCC3C2)c(C(F)F)n1` (mixture of isomers) [Example 23], the Efficacy came to 83% with Sphaerotheca fuliginea, 81% in the data set with Puccinia recondita, 80% with Alternaria solani and 100% in the data set on Pyrenophora teres [1].

For the compound `Cn1nc(C(F)F)c(C(=O)N(C2CC2)C2CCC3CCCCC3C2)c1F` (mixture of isomers) [Example 38], the Efficacy in the data set with Sphaerotheca fuliginea is recorded as 93%; with Puccinia recondita it was 100%; in the data set with Alternaria solani, 95%; in the data set on Uromyces appendiculatus, 100%; in the data set with Pyrenophora teres [2] it was 100%; in the data set with Septoria tritici, 96%. The Efficacy in the data set on Pyrenophora teres [1] is listed as 100%.

For `Cn1cc(C(=O)NC2CCC3CCCC32)c(C(F)F)n1` (stereo not drawn) [Example 1], the Efficacy in the data set on Puccinia recondita was 94%; with Uromyces appendiculatus it was 95%; with Septoria tritici it was 80%. Further, the logP (commonly a log measure of how a compound divides between an organic and an aqueous phase) in data set [3] (setting [4]) is given as 2.51.

Take `Cn1cc(C(=O)N(C2CC2)C2CC3CCCCC3C2)c(C(F)F)n1` (stereo not drawn) [Example 13]: the Efficacy in the data set on Sphaerotheca fuliginea amounted to 80%; in the data set on Uromyces appendiculatus, 91%; in the data set with Pyrenophora teres [2], 97%; in the data set with Botrytis cinerea it was 100%; with Septoria tritici it was 90%. Also, in [3] (setting [4]), the log partition coefficient (logP) is given as 3.61.

Regarding `Cn1cc(C(=O)NC2CC3CCC2C3)c(C(F)F)n1` (stereo not drawn) [Example 46], the values for the Efficacy with Uromyces appendiculatus, with Botrytis cinerea and in the data set on Septoria tritici were 85%, 88% and 75%, respectively. The log partition coefficient (logP) in data set [3] (setting [4]) turned out to be 2.14.

Turning to `Cn1nc(C(F)F)c(C(=O)NC2CC3CCC2C3)c1Cl` (stereo not drawn) [Example 47], the Efficacy with Uromyces appendiculatus is reported as 83%; with Pyrenophora teres [2], 88%; with Botrytis cinerea it was 97%; in the data set on Septoria tritici, 83%. Further, in data set [3] (setting [4]), the logP stood at 2.64.

`Cn1nc(C(F)F)c(C(=O)NC2CC3CCC2C3)c1F` (stereo not drawn) [Example 48]: the Efficacy with Puccinia recondita was determined as 75%; in the data set with Uromyces appendiculatus, 87%; in the data set on Pyrenophora teres [2], 88%; with Botrytis cinerea, 83%; in the data set with Septoria tritici it was 83%. Moreover, the logP in data set [3] (setting [4]) was 2.46.

Compound `CC1C(NC(=O)c2c(C(F)F)nn(C)c2Cl)CC2CC1C2(C)C` (stereo not drawn) [Example 51] showed a logP in data set [3] of 3.79. Further, the Efficacy in the data set on Botrytis cinerea is 95%.

With `CC1C(NC(=O)c2cn(C)nc2C(F)F)CC2CC1C2(C)C` (stereo not drawn) [Example 52], the logP in [3] is 3.19. Also, the Efficacy in the data set with Botrytis cinerea is on record as 80%.

As to `CC1C(NC(=O)c2c(C(F)F)nn(C)c2Cl)CC2CC1C2(C)C` (stereo not drawn) [Example 53], the Efficacy with Pyrenophora teres [2] turned out to be 75%; with Botrytis cinerea, 99%; in the data set with Septoria tritici it was 83%. In addition, the logP in data set [3] (setting [4]) came out at 3.79.

Take `CC1C(NC(=O)c2cn(C)nc2C(F)F)CC2CC1C2(C)C` (stereo not drawn) [Example 54]: in [3], the logP is 3.19. Further, the Efficacy in the data set with Botrytis cinerea was 85%.

As for `Cn1nc(C(F)F)c(C(=O)NC23CC4CC(CC(C4)C2)C3)c1F` [Example 56], in data set [3], the lipophilicity (logP) worked out at 3.57. The Efficacy in the data set with Botrytis cinerea came out at 100%; with Septoria tritici, 83%.

For `Cn1nc(C(F)F)c(C(=O)NC23CC4CC(CC(C4)C2)C3)c1Cl` [Example 57], the logP in data set [3] is reported as 3.81. The Efficacy in the data set with Botrytis cinerea and in the data set on Septoria tritici was 75% each time.

Regarding `Cn1cc(C(=O)N(CC2CCC3CCCC32)C2CC2)c(C(F)F)n1` (stereo not drawn) [Example 59], the Efficacy in the data set with Sphaerotheca fuliginea was 100%; in the data set with Puccinia recondita, 89%; in the data set with Uromyces appendiculatus, 75%; in the data set with Pyrenophora teres [2], 100%; in the data set on Botrytis cinerea, 100%. Also, the logP in [3] (setting [4]) was 3.50.

For the compound `Cn1cc(C(=O)N(CC2CCC3CCCC3C2)C2CC2)c(C(F)F)n1` (stereo not drawn) [Example 63], the Efficacy is 100% in the data set with Sphaerotheca fuliginea; 81% in the data set on Puccinia recondita; 79% in the data set on Pyrenophora teres [2]; 85% with Botrytis cinerea; 97% in the data set on Septoria tritici. Moreover, the logP in [3] (setting [4]) worked out at 3.92.

For the compound `Cn1nc(C(F)F)c(C(=O)N(CC2CCC3CCCC3C2)C2CC2)c1Cl` (stereo not drawn) [Example 64], the Efficacy in the data set on Sphaerotheca fuliginea was 89%; with Puccinia recondita it was 94%; in the data set with Pyrenophora teres [2] it was 71%; in the data set on Septoria tritici, 93%. The logP in [3] (setting [4]) was 4.59.

For `Cn1nc(C(F)F)c(C(=O)N(CC2CC3C=CC2C3)C2CC2)c1F` (stereo not drawn) [Example 73], the figures for the Efficacy in the data set on Pyrenophora teres [2] and with Botrytis cinerea were 100% and 93%, respectively. Also, in data set [3], the logP worked out at 3.23.

As for `CON(C(=O)c1c(C(F)F)nn(C)c1F)C(C)C1CC2CCC1C2` (stereo not drawn) [Example 99], the Efficacy with Sphaerotheca fuliginea came to 100%; with Puccinia recondita, 95%; with Pyrenophora teres [2] it was 100%; in the data set on Botrytis cinerea, 100%. The logP in [3] (setting [4]) was 3.67.

These data come from patent publication US9725414B2, “Fungicidal N-bicycloalkyl and N-tricycloalkyl pyrazole-4-(thio)carboxamide derivatives” (priority 2011, dated 2017).
